System: MV-4-11 cells
Assay: Gene expression microarray analysis (Affymetrix PrimeView) and GSEA
Type: cell-based, human
Set-up: RFU PODN (11730768_x_at) / Fold change /veh PODN (11730768_x_at) / RFU LINC00158 (11744669_a_at) / Fold change /veh LINC00158 (11744669_a_at) / RFU DUSP10 (11751237_a_at) / Fold change /veh DUSP10 (11751237_a_at) / RFU ID3 (11757404_x_at) / Fold change /veh ID3 (11757404_x_at) / RFU PLEKHG5 (11737974_s_at) / Fold change /veh PLEKHG5 (11737974_s_at) / RFU LRRC4B (11730491_at) / Fold change /veh LRRC4B (11730491_at) / RFU GIMAP4 (11747438_a_at) / Fold change /veh GIMAP4 (11747438_a_at) / RFU KRT8 (11758183_x_at) / Fold change /veh KRT8 (11758183_x_at) / RFU CNN1 (11734310_a_at) / Fold change /veh CNN1 (11734310_a_at) / RFU VPS37D (11726825_at) / Fold change /veh VPS37D (11726825_at) / RFU C10orf10 (11716522_x_at) / Fold change /veh C10orf10 (11716522_x_at) / RFU KIR2DL2 /// KIR2DL4 /// KIR2DL5A /// KIR2DL5B /// KIR2DS1 /// KIR2DS2 /// KIR2DS3 /// KIR2DS4 /// KIR3DL3 /// KIR3DL3 /// KIR3DS1 (11738374_at) / Fold change /veh KIR2DL2 /// KIR2DL4 /// KIR2DL5A /// KIR2DL5B /// KIR2DS1 /// KIR2DS2 /// KIR2DS3 /// KIR2DS4 /// KIR3DL3 /// KIR3DL3 /// KIR3DS1 (11738374_at) / RFU C1QL1 (11718748_at) / Fold change /veh C1QL1 (11718748_at) / RFU TMPRSS4 (11747572_a_at) / Fold change /veh TMPRSS4 (11747572_a_at) / RFU HAMP (11756126_x_at) / Fold change /veh HAMP (11756126_x_at) / RFU RNFT2 (11725882_a_at) / Fold change /veh RNFT2 (11725882_a_at) / RFU NR4A2 (11747474_a_at) / Fold change /veh NR4A2 (11747474_a_at) / RFU ABCC12 (11746883_a_at) / Fold change /veh ABCC12 (11746883_a_at) / RFU TMEM136 (11760407_x_at) / Fold change /veh TMEM136 (11760407_x_at) / RFU CLDN22 /// WWC2 (11732394_at) / Fold change /veh CLDN22 /// WWC2 (11732394_at) / RFU HLA-DPB1 (11760878_x_at) / Fold change /veh HLA-DPB1 (11760878_x_at) / RFU SPINT1 (11716480_a_at) / Fold change /veh SPINT1 (11716480_a_at) / RFU GAP43 (11754022_s_at) / Fold change /veh GAP43 (11754022_s_at) / RFU A4GNT (11735810_at) / Fold change /veh A4GNT (11735810_at) / RFU PRB3 (11715151_x_at) / Fold change /veh PRB3 (11715151_x_at) / RFU TUBB4B (11761932_at) / Fold change /veh TUBB4B (11761932_at) / RFU CAPN14 (11732068_a_at) / Fold change /veh CAPN14 (11732068_a_at) / RFU TMCC2 (11721928_a_at) / Fold change /veh TMCC2 (11721928_a_at) / RFU IRGQ (11745062_a_at) / Fold change /veh IRGQ (11745062_a_at) / RFU FAM174B (11720279_a_at) / Fold change /veh FAM174B (11720279_a_at) / RFU TMPRSS4 (11748680_a_at) / Fold change /veh TMPRSS4 (11748680_a_at) / RFU FAM212B (11763350_a_at) / Fold change /veh FAM212B (11763350_a_at) / RFU PLEKHG5 (11743358_a_at) / Fold change /veh PLEKHG5 (11743358_a_at) / RFU ZSCAN30 (11745921_a_at) / Fold change /veh ZSCAN30 (11745921_a_at) / RFU CMKLR1 (11741424_a_at) / Fold change /veh CMKLR1 (11741424_a_at) / RFU LOC101060620 /// MAPK8IP1 (11723275_at) / Fold change /veh LOC101060620 /// MAPK8IP1 (11723275_at) / RFU SPTSSB (11747773_x_at) / Fold change /veh SPTSSB (11747773_x_at) / RFU PRSS12 (11739890_at) / Fold change /veh PRSS12 (11739890_at) / RFU BIN1 (11741810_x_at) / Fold change /veh BIN1 (11741810_x_at) / RFU WNT11 (11732464_a_at) / Fold change /veh WNT11 (11732464_a_at) / RFU C10orf10 (11716521_a_at) / Fold change /veh C10orf10 (11716521_a_at) / RFU C5orf56 (11738089_at) / Fold change /veh C5orf56 (11738089_at) / RFU CYB561 (11721691_x_at) / Fold change /veh CYB561 (11721691_x_at) / RFU ANKRD19P (11752326_a_at) / Fold change /veh ANKRD19P (11752326_a_at) / RFU OR2T12 /// OR2T33 /// OR2T8 (11738714_s_at) / Fold change /veh OR2T12 /// OR2T33 /// OR2T8 (11738714_s_at) / RFU VCAN (11748164_a_at) / Fold change /veh VCAN (11748164_a_at) / RFU JSRP1 (11732532_at) / Fold change /veh JSRP1 (11732532_at) / RFU KRTAP10-11 (11738290_x_at) / Fold change /veh KRTAP10-11 (11738290_x_at) / RFU MYO3A (11730013_a_at) / Fold change /veh MYO3A (11730013_a_at) / RFU EBF3 (11725865_a_at) / Fold change /veh EBF3 (11725865_a_at) / RFU CAMK2N1 (11719241_x_at) / Fold change /veh CAMK2N1 (11719241_x_at) / RFU C5orf56 (11738088_a_at) / Fold change /veh C5orf56 (11738088_a_at) / RFU OLFML3 (11715873_a_at) / Fold change /veh OLFML3 (11715873_a_at) / RFU LOC100653217 /// NTM (11731650_a_at) / Fold change /veh LOC100653217 /// NTM (11731650_a_at) / RFU MAPK11 (11762145_a_at) / Fold change /veh MAPK11 (11762145_a_at) / RFU FIZ1 (11724087_x_at) / Fold change /veh FIZ1 (11724087_x_at) / RFU OASL (11726364_x_at) / Fold change /veh OASL (11726364_x_at) / RFU SOX15 (11748057_x_at) / Fold change /veh SOX15 (11748057_x_at) / RFU CD79A (11719716_a_at) / Fold change /veh CD79A (11719716_a_at) / RFU HIST1H1D (11736915_at) / Fold change /veh HIST1H1D (11736915_at) / RFU CASKIN2 (11723855_a_at) / Fold change /veh CASKIN2 (11723855_a_at) / RFU LOC730098 (11760151_x_at) / Fold change /veh LOC730098 (11760151_x_at) / RFU OR4N2 (11742367_at) / Fold change /veh OR4N2 (11742367_at) / RFU PRRT2 (11749266_a_at) / Fold change /veh PRRT2 (11749266_a_at) / RFU SNX32 (11753110_a_at) / Fold change /veh SNX32 (11753110_a_at) / RFU CDHR5 (11726645_a_at) / Fold change /veh CDHR5 (11726645_a_at) / RFU RCAN1 (11760418_a_at) / Fold change /veh RCAN1 (11760418_a_at) / RFU FAM167A (11723789_a_at) / Fold change /veh FAM167A (11723789_a_at) / RFU FAM26E (11764081_at) / Fold change /veh FAM26E (11764081_at) / RFU ISYNA1 (11749810_s_at) / Fold change /veh ISYNA1 (11749810_s_at) / RFU ACY1 (11761880_at) / Fold change /veh ACY1 (11761880_at) / RFU 11764098_at / Fold change /veh 11764098_at / RFU SAMD14 (11745864_x_at) / Fold change /veh SAMD14 (11745864_x_at) / RFU NPB (11741838_a_at) / Fold change /veh NPB (11741838_a_at) / RFU TMPRSS6 (11731388_a_at) / Fold change /veh TMPRSS6 (11731388_a_at) / RFU KRTAP10-2 (11738614_at) / Fold change /veh KRTAP10-2 (11738614_at) / RFU ARHGAP8 /// PRR5-ARHGAP8 (11727945_x_at) / Fold change /veh ARHGAP8 /// PRR5-ARHGAP8 (11727945_x_at) / RFU KRTAP5-7 /// NADSYN1 (11734609_at) / Fold change /veh KRTAP5-7 /// NADSYN1 (11734609_at) / RFU RASL12 (11751679_a_at) / Fold change /veh RASL12 (11751679_a_at) / RFU CDKN2B (11736163_a_at) / Fold change /veh CDKN2B (11736163_a_at) / RFU PRF1 (11729649_at) / Fold change /veh PRF1 (11729649_at) / RFU, ZNF638 /// ZNF638-IT1 / Fold change vs veh, ZNF638 /// ZNF638-IT1 / RFU, PANK3 / Fold change vs veh, PANK3 / RFU, SH3YL1 / Fold change vs veh, SH3YL1 / RFU, ZEB2 / Fold change vs veh, ZEB2 / RFU, NRIP1 / Fold change vs veh, NRIP1 / RFU, PTTG1IP / Fold change vs veh, PTTG1IP / RFU, CAPN2 / Fold change vs veh, CAPN2 / RFU, MED14 / Fold change vs veh, MED14 / RFU, SNORA58 / Fold change vs veh, SNORA58 / RFU, C1orf63 / Fold change vs veh, C1orf63 / RFU, LRRFIP1 / Fold change vs veh, LRRFIP1 / RFU, NDUFAF7 / Fold change vs veh, NDUFAF7 / RFU, SLC12A2 / Fold change vs veh, SLC12A2 / RFU, IBTK / Fold change vs veh, IBTK / RFU, ESF1 / Fold change vs veh, ESF1 / Fold change vs veh, TMEM50B / RFU, TAOK1 / Fold change vs veh, TAOK1 / RFU, ACBD3 / Fold change vs veh, ACBD3 / RFU, TMA16 / Fold change vs veh, TMA16 / RFU, RWDD3 / Fold change vs veh, RWDD3 / RFU, BCAT1 / Fold change vs veh, BCAT1 / RFU, EDEM3 / Fold change vs veh, EDEM3 / RFU, TMEM33 / Fold change vs veh, TMEM33 / RFU, WDR75 / Fold change vs veh, WDR75 / RFU, AHCTF1 / Fold change vs veh, AHCTF1 / RFU, TFRC / Fold change vs veh, TFRC / RFU, ZDHHC17 / Fold change vs veh, ZDHHC17 / RFU, NOM1 / Fold change vs veh, NOM1 / RFU, ARL8B / Fold change vs veh, ARL8B / RFU, ZBTB11 / Fold change vs veh, ZBTB11 / RFU, TAMM41 / Fold change vs veh, TAMM41 / RFU, KIAA1704 /// LOC100996395 / Fold change vs veh, KIAA1704 /// LOC100996395 / RFU, ING1 / Fold change vs veh, ING1 / RFU, TRMT61B / Fold change vs veh, TRMT61B / RFU, FUBP3 / Fold change vs veh, FUBP3 / RFU, TP53 / Fold change vs veh, TP53 / RFU, TNKS2 / Fold change vs veh, TNKS2 / RFU, ZFP14 / Fold change vs veh, ZFP14 / RFU, ACTR2 / Fold change vs veh, ACTR2 / RFU, PPP3R1 / Fold change vs veh, PPP3R1 / RFU, PIK3R1 / Fold change vs veh, PIK3R1 / RFU, HNRNPA1 / Fold change vs veh, HNRNPA1 / RFU, RNF170 / Fold change vs veh, RNF170 / RFU, ZNF28 / Fold change vs veh, ZNF28 / RFU, RNGTT / Fold change vs veh, RNGTT / RFU, OGT / Fold change vs veh, OGT / RFU, BRD1 / Fold change vs veh, BRD1 / RFU, MARS / Fold change vs veh, MARS / RFU, ZNF655 / Fold change vs veh, ZNF655 / RFU, FAHD1 / Fold change vs veh, FAHD1 / RFU, BDP1 / Fold change vs veh, BDP1 / RFU, LRRCC1 / Fold change vs veh, LRRCC1 / RFU, ARID1A / Fold change vs veh, ARID1A / RFU, ZNF146 / Fold change vs veh, ZNF146 / RFU, ZNF330 / Fold change vs veh, ZNF330 / RFU, GPN3 / Fold change vs veh, GPN3 / RFU, C9orf123 / Fold change vs veh, C9orf123 / RFU, N4BP2L2 / Fold change vs veh, N4BP2L2 / RFU, ARFIP1 / Fold change vs veh, ARFIP1 / RFU, FAM179B / Fold change vs veh, FAM179B / RFU, BCL10 / Fold change vs veh, BCL10 / RFU, UHRF1BP1L / Fold change vs veh, UHRF1BP1L / RFU, BET1 / Fold change vs veh, BET1 / RFU, CNOT2 / Fold change vs veh, CNOT2 / RFU, ZNF268 / Fold change vs veh, ZNF268 / Fold change vs veh, ZNF507 / RFU, DGCR2 / Fold change vs veh, DGCR2 / RFU, WDSUB1 / Fold change vs veh, WDSUB1 / Fold change vs veh, HSP90B1 /// MIR3652 / RFU, ADSS / Fold change vs veh, ADSS / RFU, GK / Fold change vs veh, GK / RFU, ZNF148 / Fold change vs veh, ZNF148 / RFU, TAF9 / Fold change vs veh, TAF9 / RFU, SLC1A5 / Fold change vs veh, SLC1A5 / RFU, SLMO2 / Fold change vs veh, SLMO2 / RFU, ABCC4 / Fold change vs veh, ABCC4 / RFU, LOC101060439 /// RAP1B / Fold change vs veh, LOC101060439 /// RAP1B / RFU, RFX7 / Fold change vs veh, RFX7 / RFU, GTPBP10 / Fold change vs veh, GTPBP10 / RFU, CNEP1R1 / Fold change vs veh, CNEP1R1 / RFU, BIVM-ERCC5 /// ERCC5 / Fold change vs veh, BIVM-ERCC5 /// ERCC5 / RFU, ILF3 / Fold change vs veh, ILF3 / RFU 11762660_at / Fold change /veh 11762660_at / RFU VCAN (11757783_s_at) / Fold change /veh VCAN (11757783_s_at) / RFU DDX43 (11728927_at) / Fold change /veh DDX43 (11728927_at) / RFU KRT8 (11758188_x_at) / Fold change /veh KRT8 (11758188_x_at) / RFU NKD1 (11759106_at) / Fold change /veh NKD1 (11759106_at) / RFU SRD5A1 (11742802_a_at) / Fold change /veh SRD5A1 (11742802_a_at) / RFU TPSAB1 /// TPSB2 (11721975_s_at) / Fold change /veh TPSAB1 /// TPSB2 (11721975_s_at) / RFU GSTM3 (11746129_a_at) / Fold change /veh GSTM3 (11746129_a_at) / RFU IL23R (11737362_x_at) / Fold change /veh IL23R (11737362_x_at) / RFU TMEM51 (11727254_a_at) / Fold change /veh TMEM51 (11727254_a_at) / RFU PIWIL2 (11732686_x_at) / Fold change /veh PIWIL2 (11732686_x_at) / RFU ORM1 (11744905_x_at) / Fold change /veh ORM1 (11744905_x_at) / RFU CCDC152 (11743942_at) / Fold change /veh CCDC152 (11743942_at) / RFU ECM1 (11717891_a_at) / Fold change /veh ECM1 (11717891_a_at) / RFU IL23R (11748794_a_at) / Fold change /veh IL23R (11748794_a_at) / RFU TNFAIP8L3 (11732012_x_at) / Fold change /veh TNFAIP8L3 (11732012_x_at) / RFU MBOAT4 (11741988_at) / Fold change /veh MBOAT4 (11741988_at) / RFU 11764193_at / Fold change /veh 11764193_at / RFU TMEM53 (11763286_at) / Fold change /veh TMEM53 (11763286_at) / RFU MAGEB2 (11727129_at) / Fold change /veh MAGEB2 (11727129_at) / RFU TMEM200A (11744735_a_at) / Fold change /veh TMEM200A (11744735_a_at) / RFU CCDC152 (11751479_a_at) / Fold change /veh CCDC152 (11751479_a_at) / RFU FAM211A (11726209_a_at) / Fold change /veh FAM211A (11726209_a_at) / RFU RGS16 (11746705_a_at) / Fold change /veh RGS16 (11746705_a_at) / RFU VCAN (11755009_s_at) / Fold change /veh VCAN (11755009_s_at) / RFU RHOB (11743442_s_at) / Fold change /veh RHOB (11743442_s_at) / RFU RGS16 (11720943_a_at) / Fold change /veh RGS16 (11720943_a_at) / RFU RGS16 (11720944_at) / Fold change /veh RGS16 (11720944_at) / RFU, VPS4B / Fold change vs veh, VPS4B / RFU, CREB1 / Fold change vs veh, CREB1 / RFU, DNAJC13 / Fold change vs veh, DNAJC13 / RFU, GNAQ / Fold change vs veh, GNAQ / RFU, CDK5R1 / Fold change vs veh, CDK5R1 / RFU, ZRANB3 / Fold change vs veh, ZRANB3 / RFU, CUL4A / Fold change vs veh, CUL4A / RFU, CCNY / Fold change vs veh, CCNY / RFU, UFL1 / Fold change vs veh, UFL1 / RFU, COG3 / Fold change vs veh, COG3 / RFU, DIAPH2 / Fold change vs veh, DIAPH2 / RFU, SKA2 / Fold change vs veh, SKA2 / RFU, AFF3 / Fold change vs veh, AFF3 / RFU, LMF1 / Fold change vs veh, LMF1 / RFU, IPO11 / Fold change vs veh, IPO11 / RFU, DFFB / Fold change vs veh, DFFB / RFU, FOXP1 / Fold change vs veh, FOXP1 / RFU, CARD8 / Fold change vs veh, CARD8 / RFU, STRN3 / Fold change vs veh, STRN3 / RFU, ADK / Fold change vs veh, ADK / RFU, RASSF2 / Fold change vs veh, RASSF2 / RFU, WIPF1 / Fold change vs veh, WIPF1 / RFU, LARP1B / Fold change vs veh, LARP1B / RFU, RASA1 / Fold change vs veh, RASA1 / RFU, RB1 / Fold change vs veh, RB1 / RFU, PPFIA1 / Fold change vs veh, PPFIA1 / RFU, MAT2A / Fold change vs veh, MAT2A / RFU, CCT5 / Fold change vs veh, CCT5 / RFU, WDR92 / Fold change vs veh, WDR92 / RFU, CUX1 / Fold change vs veh, CUX1 / RFU, TTC7A / Fold change vs veh, TTC7A / RFU, TMEM135 / Fold change vs veh, TMEM135 / RFU, DEPTOR / Fold change vs veh, DEPTOR / RFU, CPM / Fold change vs veh, CPM / RFU, DNAJB6 / Fold change vs veh, DNAJB6 / RFU, CACNA2D3 / Fold change vs veh, CACNA2D3 / RFU, DTX4 / Fold change vs veh, DTX4 / RFU, TFCP2 / Fold change vs veh, TFCP2 / RFU, GMCL1 /// GMCL1P1 / Fold change vs veh, GMCL1 /// GMCL1P1 / RFU, AEBP2 / Fold change vs veh, AEBP2 / RFU, SNHG1 /// SNORD22 /// SNORD25 /// SNORD26 /// SNORD27 /// SNORD28 /// SNORD29 /// SNORD31 / Fold change vs veh, SNHG1 /// SNORD22 /// SNORD25 /// SNORD26 /// SNORD27 /// SNORD28 /// SNORD29 /// SNORD31 / Fold change (Aza/veh), C12orf56 (ProbeSet 11735607_a_at) / Fold change (ACY-1035/veh), C12orf56 (ProbeSet 11735607_a_at) / Fold change (Aza/veh), FGFR1OP (ProbeSet 11751329_s_at) / Fold change (ACY-1035/veh), FGFR1OP (ProbeSet 11751329_s_at) / Fold change (Aza/veh), VPS36 (ProbeSet 11739960_a_at) / Fold change (ACY-1035/veh), VPS36 (ProbeSet 11739960_a_at) / RFU SYPL1 (11715823_x_at) / Fold change /veh SYPL1 (11715823_x_at) / RFU IGFBP7 (11715501_s_at) / Fold change /veh IGFBP7 (11715501_s_at) / RFU REEP3 (11722064_at) / Fold change /veh REEP3 (11722064_at) / RFU IGLL1 (11728026_x_at) / Fold change /veh IGLL1 (11728026_x_at): dose or concentration left out as unconfirmed
Settings: ProbeSet 11728676_at; LIST B

## Nc1ccc(-c2cccs2)cc1NC(=O)c1ccc2c(c1)cc(C1CC1)n2CCN1CCOCC1 [ACY-1035]
  RFU, MED14: 202.11 RFU

Reference: article PMC5218480 (PLoS ONE, 2017)
